Patent US12282026B2, “Method for screening personalized intestinal environment-improving material and composition therefor” (HEM PHARMA INC., priority 2019, dated 2025)

Tested on: feces samples
Type: cell-based, human

Clostridium butyricum [CB]
change in amount of butyrate: increases significantly
